According to ChEMBL document CHEMBL1800064, “Biaryl ethers as potent allosteric inhibitors of reverse transcriptase and its key mutant viruses: aryl substituted pyrazole as a surrogate for the pyrazolopyridine motif” (Bioorg Med Chem Lett, 2010):

Assays:
[1] = molecular target: Human immunodeficiency virus type 1 reverse transcriptase (Human immunodeficiency virus 1, UniProt Q72547, K103N); test: Inhibition of HIV1 reverse transcriptase K103N mutant by SPA assay
[2] = molecular target: Human immunodeficiency virus type 1 reverse transcriptase (Human immunodeficiency virus 1, UniProt Q72547); test: Inhibition of wild type HIV1 reverse transcriptase by SPA assay
[3] = test system: Human immunodeficiency virus 1; test: Antiviral activity against HIV1 R8 harboring reverse transcriptase K103N mutant infected in human MT4 cells assessed as inhibition of viral spread in presence of 10% fetal bovine serum; format: functional; conditions: Human immunodeficiency virus 1, R8, MT4; read-out: CIC95
[4] = test system: Human immunodeficiency virus 1; test: Antiviral activity against HIV1 R8 harboring reverse transcriptase Y181C mutant infected in human MT4 cells assessed as inhibition of viral spread in presence of 10% fetal bovine serum; format: functional; conditions: Human immunodeficiency virus 1, R8, MT4; read-out: CIC95
[5] = molecular target: T1, Human immunodeficiency virus type 1 reverse transcriptase (Human immunodeficiency virus 1, UniProt Q72547, Y181C); test: Inhibition of HIV1 reverse transcriptase Y181C mutant by SPA assay
[6] = test system: Human immunodeficiency virus 1; test: Antiviral activity against HIV1 R8 harboring wild type reverse transcriptase infected in human MT4 cells assessed as inhibition of viral spread in presence of 10% fetal bovine serum; format: functional; conditions: Human immunodeficiency virus 1, R8, MT4; read-out: CIC95
[7] = test system: Human immunodeficiency virus 1; test: Antiviral activity against HIV1 R8 harboring reverse transcriptase infected in human MT4 cells assessed as inhibition of viral spread in presence of 50% normal human serum; format: functional; conditions: Human immunodeficiency virus 1, R8, MT4; read-out: CIC95
[8] = molecular target: T1, Human immunodeficiency virus type 1 reverse transcriptase; test: Inhibition of HIV1 reverse transcriptase Y181C mutant by electrochemiluminescent assay
[9] = test system: Human immunodeficiency virus 1; test: Antiviral activity against HIV1 R8 harboring reverse transcriptase K103N/Y181C double mutant infected in human MT4 cells assessed as concentration required to inhibit >95% viral spread in presence of 10% FBS; format: functional; conditions: Human immunodeficiency virus 1, R8, MT4; read-out: CIC95

N#Cc1cc(Cl)cc(Oc2cc(OCc3cc(-c4cc[n+]([O-])cc4)[nH]n3)ccc2Cl)c1
Ki [1]: 0.021 µM | Ki [2]: 0.0053 µM | IC95 [3]: 0.307 µM | IC95 [4]: 0.5 µM | Ki [5]: 0.046 µM | IC95 [6]: 0.044 µM | IC95 [7]: 0.307 µM

N#Cc1cc(Cl)cc(Oc2cc(OCc3n[nH]cc3-c3ccccc3)ccc2Cl)c1
Ki [1]: > 0.34 µM | Ki [2]: 0.46 µM | Ki [5]: > 3 µM | IC95 [6]: 8.3 µM | IC95 [7]: > 8.3 µM

N#Cc1cc(Cl)cc(Oc2cc(OCc3cc(-c4ccccn4)[nH]n3)ccc2Cl)c1
Ki [1]: 0.0096 µM | Ki [2]: 0.0032 µM | IC95 [3]: 0.307 µM | IC95 [4]: > 0.833 µM | Ki [5]: 0.0089 µM | IC95 [6]: 0.097 µM | IC95 [7]: 0.307 µM

N#Cc1cc(Cl)cc(Oc2cc(OCc3n[nH]c(-c4ccccn4)c3Cl)ccc2Cl)c1
Ki [1]: 0.0005 µM | Ki [2]: 0.0004 µM | IC95 [3]: 2.77 µM | Ki [8]: 0.0006 µM | IC95 [6]: 0.922 µM | IC95 [7]: 0.922 µM

N#Cc1cc(Cl)cc(Oc2cc(OCc3cc(-c4ccccc4)no3)ccc2Cl)c1
Ki [1]: 0.115 µM | Ki [2]: 0.031 µM | IC95 [3]: > 8.33 µM | Ki [5]: 0.763 µM | IC95 [6]: > 8.3 µM | IC95 [7]: > 8.3 µM

O=C1Nc2ccc(Cl)cc2[C@@](C#CC2CC2)(C(F)(F)F)O1 [EFAVIRENZ]
IC95 [9]: 0.272 µM | IC95 [3]: 0.232 µM | IC95 [4]: 0.008 µM | IC95 [6]: 0.0043 µM | IC95 [7]: 0.038 µM

Cn1cc(-c2cc(COc3ccc(Cl)c(Oc4cc(Cl)cc(C#N)c4)c3)n[nH]2)cn1
Ki [1]: 0.0042 µM | Ki [2]: 0.0007 µM | IC95 [3]: 0.102 µM | Ki [8]: 0.003 µM | IC95 [4]: 0.278 µM | IC95 [6]: 0.032 µM | IC95 [7]: 0.307 µM

N#Cc1cc(Cl)cc(Oc2cc(OCc3nc(-c4ccccn4)no3)ccc2Cl)c1
Ki [1]: 0.069 µM | Ki [2]: 0.029 µM | IC95 [6]: > 8.3 µM | IC95 [7]: > 8.3 µM

N#Cc1cc(Cl)cc(Oc2cc(OCc3ncc(-c4ccc(Cl)cc4)o3)ccc2Cl)c1
Ki [1]: 0.0044 µM | Ki [2]: 0.0021 µM | IC95 [6]: 0.926 µM | IC95 [7]: 0.277 µM

N#Cc1cc(Cl)cc(Oc2cc(OCc3cc(-c4ccccc4)[nH]n3)ccc2Cl)c1
Ki [1]: 0.0024 µM | Ki [2]: 0.0009 µM | IC95 [3]: 0.924 µM | IC95 [4]: 0.833 µM | Ki [5]: 0.0125 µM | IC95 [6]: 0.222 µM | IC95 [7]: 0.924 µM

N#Cc1cc(Cl)cc(Oc2cc(OCc3nc(-c4ccccc4)no3)ccc2Cl)c1
Ki [1]: 0.056 µM | Ki [2]: 0.015 µM

N#Cc1cc(Cl)cc(Oc2cc(OCc3cc(-c4ccco4)[nH]n3)ccc2Cl)c1
Ki [1]: 0.01 µM | Ki [2]: 0.0003 µM | IC95 [3]: 0.922 µM | IC95 [4]: 0.833 µM | Ki [5]: 0.0015 µM | IC95 [6]: 0.097 µM | IC95 [7]: 0.922 µM

COc1ccc(-c2nnc(COc3ccc(Cl)c(Oc4cc(Cl)cc(C#N)c4)c3)o2)cc1
Ki [1]: 0.0093 µM | Ki [2]: 0.0052 µM | IC95 [6]: 0.926 µM | IC95 [7]: 0.926 µM

N#Cc1cc(Cl)cc(Oc2cc(OCc3n[nH]c(-c4ccncc4)c3Cl)ccc2Cl)c1
Ki [1]: 0.0007 µM | Ki [2]: 0.0005 µM | IC95 [3]: 0.102 µM | Ki [8]: 0.0005 µM | IC95 [4]: 0.278 µM | IC95 [6]: 0.097 µM | IC95 [7]: 0.307 µM

N#Cc1cc(Cl)cc(Oc2cc(OCc3cc[nH]n3)ccc2Cl)c1
Ki [1]: 0.179 µM | Ki [2]: 0.039 µM | IC95 [3]: 8.3 µM | Ki [5]: 0.14 µM | IC95 [6]: 0.922 µM | IC95 [7]: 8.3 µM

N#Cc1cc(Cl)cc(Oc2cc(OCc3cc(-c4ccccc4)on3)ccc2Cl)c1
Ki [1]: 0.0055 µM | Ki [2]: 0.0026 µM | IC95 [3]: 2.78 µM | IC95 [4]: 0.833 µM | Ki [5]: 0.0204 µM | IC95 [6]: 0.926 µM | IC95 [7]: 8.33 µM

N#Cc1cc(Cl)cc(Oc2cc(OCc3cn(-c4ccccc4)nn3)ccc2Cl)c1
Ki [1]: 0.946 µM | Ki [2]: 0.068 µM

COc1ccc(-c2noc(COc3ccc(Cl)c(Oc4cc(Cl)cc(C#N)c4)c3)n2)cc1
Ki [1]: 0.03 µM | Ki [2]: 0.0021 µM | IC95 [6]: > 8.3 µM | IC95 [7]: > 8.3 µM

N#Cc1ccc(-c2cc(COc3ccc(Cl)c(Oc4cc(Cl)cc(C#N)c4)c3)n[nH]2)cc1
Ki [1]: 0.0036 µM | Ki [2]: 0.0007 µM | IC95 [3]: 0.307 µM | Ki [8]: 0.012 µM | IC95 [6]: 0.034 µM | IC95 [7]: 0.922 µM

N#Cc1cc(Cl)cc(Oc2cc(OCc3nc(-c4ccc(Cl)cc4)no3)ccc2Cl)c1
Ki [1]: 0.13 µM | Ki [2]: 0.031 µM | IC95 [6]: > 8.3 µM | IC95 [7]: > 8.3 µM

N#Cc1cc(Cl)cc(Oc2cc(OCc3cc(-c4cccnc4)[nH]n3)ccc2Cl)c1
Ki [1]: 0.0052 µM | Ki [2]: 0.0011 µM | IC95 [3]: 0.307 µM | IC95 [4]: 0.278 µM | Ki [5]: 0.0067 µM | IC95 [6]: 0.032 µM | IC95 [7]: 0.307 µM

N#Cc1cc(Cl)cc(Oc2cc(OCc3nnc(-c4ccc(Cl)cc4)o3)ccc2Cl)c1
Ki [1]: 0.011 µM | Ki [2]: 0.0049 µM | IC95 [6]: 2.78 µM | IC95 [7]: 0.83 µM

N#Cc1cc(Cl)cc(Oc2cc(OCc3n[nH]c(-c4ccc(-c5nnn[nH]5)cc4)c3Cl)ccc2Cl)c1
Ki [1]: 0.0007 µM | Ki [2]: 0.0003 µM | IC95 [3]: 8.33 µM | Ki [8]: 0.0006 µM | IC95 [6]: 2.78 µM | IC95 [7]: > 8.33 µM

N#Cc1cc(Cl)cc(Oc2cc(OCc3cc(-c4cccs4)[nH]n3)ccc2Cl)c1
Ki [1]: 0.0046 µM | Ki [2]: 0.0016 µM | IC95 [3]: 0.922 µM | IC95 [4]: 0.178 µM | Ki [5]: 0.0495 µM | IC95 [6]: 0.168 µM | IC95 [7]: 0.307 µM
